Molecular target: HSET full length protein (Homo sapiens (Human), UniProt Q9BW19)
Sequence (Q9BW19 whole entry): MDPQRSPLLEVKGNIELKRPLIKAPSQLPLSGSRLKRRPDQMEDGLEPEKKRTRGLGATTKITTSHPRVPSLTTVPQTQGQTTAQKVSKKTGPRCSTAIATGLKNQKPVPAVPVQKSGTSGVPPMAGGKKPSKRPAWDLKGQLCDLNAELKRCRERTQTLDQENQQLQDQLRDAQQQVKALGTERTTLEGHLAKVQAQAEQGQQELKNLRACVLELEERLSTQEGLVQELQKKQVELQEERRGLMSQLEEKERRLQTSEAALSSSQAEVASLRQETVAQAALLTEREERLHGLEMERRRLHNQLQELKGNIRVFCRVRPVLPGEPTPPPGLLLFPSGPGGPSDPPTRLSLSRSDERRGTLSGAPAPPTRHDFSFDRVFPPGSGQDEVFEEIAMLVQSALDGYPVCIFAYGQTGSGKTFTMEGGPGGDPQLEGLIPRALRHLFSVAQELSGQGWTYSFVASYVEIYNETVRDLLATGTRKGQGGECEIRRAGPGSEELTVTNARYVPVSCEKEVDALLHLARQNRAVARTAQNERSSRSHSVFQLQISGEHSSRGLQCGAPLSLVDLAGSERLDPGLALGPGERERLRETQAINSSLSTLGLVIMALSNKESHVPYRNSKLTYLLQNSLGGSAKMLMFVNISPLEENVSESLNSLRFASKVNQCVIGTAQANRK
Assay: HSET ADP-Glo Assay S - 3 μM ATP
Type: biochemical
Conditions: 5 nM HSET, 70 μg/mL microtubule, 80 min at rt, read-out: COMBINED HSET ADP GLO IC50
Summary of the method: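 ADP-Glo luminescence read-out: ATPase reaction at 3 μM ATP, 80 min at room temperature, after a 10 min compound preincubation. Enzyme was full-length human HSET at 5 nM, stimulated by 70 μg/mL paclitaxel-stabilised bovine microtubules in HEPES pH 6.8 buffer with MgCl2, EGTA, Triton X-100 and DTT.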
In the case of CCCOC(=O)c1sc(C(=O)N2CC[C@@H](Nc3nccc4ccc(-c5noc(C)n5)cc34)[C@@H]2C)nc1C [Example 255, Propyl 4-methyl-2-((2S,3R)-2-methyl-3-((7-(5-methyl-1,2,4-oxadiazol-3-yl)isoquinolin-1-yl)amino)pyrrolidine-1-carbonyl)thiazole-5-carboxylate], the IC50 is reported as 27 nM. With CCCOC(=O)c1sc(C(=O)N2C[C@@H](F)[C@H](Nc3nccc4ccc(-c5noc(C)n5)cc34)C2)nc1C [Example 256, propyl 2-((3R,4R)-3-fluoro-4-((7-(5-methyl-1,2,4-oxadiazol-3-yl)isoquinolin-1-yl)amino)pyrrolidine-1-carbonyl)-4-methylthiazole-5-carboxylate] the IC50 was 20 nM. In the case of CCCOC(=O)n1cc(NC(=O)CCNc2nccc3ccc(-c4noc(C)n4)cc23)nc1C [Example 257, Propyl 2-methyl-4-(3-{[7-(5-methyl-1,2,4-oxadiazol-3-yl)isoquinolin-1-yl]amino}propanamido)-1 H-imidazole-1-carboxylate], the IC50 is reported as 47 nM. For Cc1nc(-c2ccc3ccnc(NCCC(=O)Nc4cn(C(=O)OC(C)C)c(C)n4)c3c2)no1 [Example 258, Propan-2-yl 2-methyl-4-(3-{[7-(5-methyl-1,2,4-oxadiazol-3-yl)isoquinolin-1-yl]amino}propanamido)-1 H-imidazole-1-carboxylate], the IC50 was 207 nM. CCOC(=O)n1cc(NC(=O)CCNc2nccc3ccc(-c4noc(C)n4)cc23)nc1C [Example 259, Ethyl 2-methyl-4-(3-{[7-(5-methyl-1,2,4-oxadiazol-3-yl)isoquinolin-1-yl]amino}propanamido)-1 H-imidazole-1-carboxylate] showed an IC50 of 531 nM. In the case of CCCOC(=O)n1cnc(NC(=O)CCNc2nccc3ccc(-c4noc(C)n4)cc23)c1 [Example 260, Propyl 4-(3-{[7-(5-methyl-1,2,4-oxadiazol-3-yl)isoquinolin-1-yl]amino}propanamido)-1 H-imidazole-1-carboxylate], the IC50 is reported as 140 nM. For CCOC(=O)n1cc(NC(=O)CCNc2nccc3ccc(-c4cnn(C)c4)cc23)nc1C [Example 261, Ethyl 2-methyl-4-(3-{[7-(1-methyl-1 H-pyrazol-4-yl)isoquinolin-1-yl]amino}propanamido)-1 H-imidazole-1-carboxylate], the IC50 was 13000 nM. CCCOC(=O)n1cc(NC(=O)CCNc2nccc3ccc(-c4cnn(C)c4)cc23)nc1C [Example 262, Propyl 2-methyl-4-(3-{[7-(1-methyl-1 H-pyrazol-4-yl)isoquinolin-1-yl]amino}propanamido)-1 H-imidazole-1-carboxylate] showed an IC50 of 1000 nM. CCCOC(=O)n1cc(NC(=O)CCNC(=O)c2cccc(-c3noc(C)n3)c2)nc1C [Example 263] showed an IC50 of 200 nM. With Cc1nc(-c2cccc(C(=O)NCCC(=O)Nc3cn(C(=O)OC(C)C)c(C)n3)c2)no1 [Example 264] the IC50 was 280 nM. In the case of CCOC(=O)n1cc(NC(=O)CCNC(=O)c2cccc(-c3noc(C)n3)c2)nc1C [Example 265], the IC50 is reported as 2250 nM. With CCCOC(=O)n1cnc(NC(=O)CCNC(=O)c2cccc(-c3noc(C)n3)c2)c1 [Example 266, Propyl 4-(3-{[3-(5-methyl-1,2,4-oxadiazol-3-yl)phenyl]formamido}-propanamido)-1 H-imidazole-1-carboxylate] the IC50 was 3400 nM. In the case of CCCOC(=O)n1cc(NC(=O)[C@@H](O)CNC(=O)c2cccc(-c3cnn(C)c3)c2)nc1C [Example 267], the IC50 is reported as 380 nM. For CCCOC(=O)n1cc(NC(=O)[C@H](O)CNC(=O)c2cccc(-c3cnn(C)c3)c2)nc1C [Example 268], the IC50 was 950 nM. In the case of Cc1nc(NC(=O)[C@@H](O)CNC(=O)c2cccc(-c3cnn(C)c3)c2)cn1C(=O)OC(C)C [Example 269], the IC50 is reported as 910 nM. Work on Cc1nc(NC(=O)[C@H](O)CNC(=O)c2cccc(-c3cnn(C)c3)c2)cn1C(=O)OC(C)C [Example 270] yielded an IC50 of 5100 nM. CCOC(=O)n1cc(NC(=O)[C@@H](O)CNC(=O)c2cccc(-c3cnn(C)c3)c2)nc1C [Example 271] showed an IC50 of 4000 nM. For Cc1nc(-c2ccc3ccnc(NCCC(=O)Nc4cnn(C(=O)OC(C)(C)C)c4)c3c2)no1 [Example 272, tert-Butyl 4-(3-{[7-(5-methyl-1,2,4-oxadiazol-3-yl)isoquinolin-1-yl]amino}propanamido)-1 H-pyrazole-1-carboxylate], the IC50 was 160 nM. In the case of CCCOC(=O)n1cc(NC(=O)CCNc2nccc3ccc(-c4noc(C)n4)cc23)cn1 [Example 273, Propyl 4-(3-{[7-(5-methyl-1,2,4-oxadiazol-3-yl)isoquinolin-1-yl]amino}propanamido)-1 H-pyrazole-1-carboxylate], the IC50 is reported as 80 nM. Work on CCCOC(=O)n1cc(NC(=O)CCNC(=O)c2cccc(-c3noc(C)n3)c2)cn1 [Example 275, Propyl 4-(3-{[3-(5-methyl-1,2,4-oxadiazol-3-yl)phenyl]formamido}-propanamido)-1 H-pyrazole-1-carboxylate] yielded an IC50 of 11500 nM. Compound CCCOC(=O)c1sc(NC(=O)CCNC(=O)c2cccc(-c3noc(C)n3)n2)nc1C [Example 276, Propyl 4-methyl-2-(3-{[6-(5-methyl-1,2,4-oxadiazol-3-yl)pyridin-2-yl]formamido}propanamido)-1,3-thiazole-5-carboxylate] has an IC50 of 37 nM. Cc1nc(-c2cccc(C(=O)NCCC(=O)Nc3nc(C)c(C(=O)OC(C)(C)C)s3)n2)no1 [Example 277, tert-Butyl 4-methyl-2-(3-{[6-(5-methyl-1,2,4-oxadiazol-3-yl)pyridin-2-yl]formamido}propanamido)-1,3-thiazole-5-carboxylate] showed an IC50 of 155 nM. Compound Cc1nc(-c2cccc(C(=O)NCCC(=O)Nc3nc(C)c(C(=O)OC(C)C)s3)n2)no1 [Example 278] has an IC50 of 71 nM. Cc1nc(-c2cccc(C(=O)NCCC(=O)Nc3nc(C)c(C(=O)OC(C)(C)C)s3)c2F)no1 [Example 279] showed an IC50 of 860 nM. CCCOC(=O)c1sc(NC(=O)CCNc2nccc3ccc(C)cc23)nc1C [Example 280, Propyl 4-methyl-2-[3-[(7-methyl-1-isoquinolyl)amino]propanoyl-amino]thiazole-5-carboxylate] gave an IC50 of 141 nM.

Molecular target: HSET (Homo sapiens (Human), UniProt Q9BW19)
Sequence (Q9BW19 whole entry): as above
Assay: not given
Conditions: literature (Watts et al., 2013; Zhang et al., 2016); read-out: HSET IC50 in biochemical assays; cited from earlier work
For O=C(O)c1cc(I)ccc1NC(=O)[C@H](Cc1ccccc1)NCc1ccccc1 [CW069], the IC50 is listed as 75000 nM. For COc1ccc(-c2nc(N)s[n+]2-c2ccccc2)cc1 [SR31527], the IC50 is listed as 6600 nM.

Source: patent publication US20250084074A1, “SUBSTITUTED HETEROCYCLES AS HSET INHIBITORS” (MERCK PATENT GMBH, priority 2022, published 2025)
